In patent US20260297070A1, “CYCLIC [COMPOUND LEFT OUT] WRN INHIBITORS” (Nimbus Wadjet, Inc., priority 2023, published 2026):

The compounds below were run against T1, human Werner helicase (WRN-BV08, Uniprot Q14191, amino acids 517-1235 with L1074F point mutation) (Homo sapiens, UniProt Q14191, L1074F) (assay: WRN (BV08) ADP-Glo Assay). Details: 0.15 nM WRN, 5 μM ATP, 0.1 nM DNA duplex, 15 min preincubation, 60 min at 25° C., pH 7.5, 1% DMSO; read-out: ADP-Glo_hWRN_IC50.
T1 construct: Uniprot Q14191, amino acids 517-1235 with L1074F point mutation; TEV-cleavable 8×His (C, cleaved yes); made in house; host or cells: Sf9 insect cells (baculovirus)
T1 sequence (Q14191 with tags, fused parts or gaps L1074F limits assumed): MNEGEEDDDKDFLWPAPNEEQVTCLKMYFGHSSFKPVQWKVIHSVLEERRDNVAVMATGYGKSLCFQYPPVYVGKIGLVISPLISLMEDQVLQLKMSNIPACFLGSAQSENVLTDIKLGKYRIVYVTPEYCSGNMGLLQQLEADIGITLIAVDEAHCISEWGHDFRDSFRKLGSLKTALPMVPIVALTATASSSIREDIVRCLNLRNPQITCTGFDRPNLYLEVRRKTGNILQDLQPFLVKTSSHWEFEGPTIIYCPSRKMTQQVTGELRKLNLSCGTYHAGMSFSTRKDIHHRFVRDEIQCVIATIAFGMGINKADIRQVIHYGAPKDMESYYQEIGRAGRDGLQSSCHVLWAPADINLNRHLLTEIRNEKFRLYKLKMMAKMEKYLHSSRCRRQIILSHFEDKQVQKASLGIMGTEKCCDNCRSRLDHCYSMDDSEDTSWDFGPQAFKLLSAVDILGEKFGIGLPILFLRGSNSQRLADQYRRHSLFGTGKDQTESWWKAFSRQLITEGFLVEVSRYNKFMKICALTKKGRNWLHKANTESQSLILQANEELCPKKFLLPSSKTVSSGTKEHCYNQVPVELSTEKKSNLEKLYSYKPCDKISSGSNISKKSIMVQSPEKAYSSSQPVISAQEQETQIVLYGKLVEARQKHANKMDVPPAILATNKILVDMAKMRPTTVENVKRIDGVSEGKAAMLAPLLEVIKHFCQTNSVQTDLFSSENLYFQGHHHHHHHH
Assay type: biochemical
In short: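 Helicase ATPase activity is measured at 25 °C over 60 min using 0.15 nM enzyme, 5 μM ATP and 0.1 nM DNA duplex, final DMSO 1%. ADP production is detected by luminescence, with IC50 derived by curve fitting.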

Row | Structure (SMILES) | IC50 [µM]
1 | O=C(Cc1ccc2c[nH]nc2c1)N(Cc1ccncc1)C1C=CS(=O)(=O)C1 (centres unmarked) [I-414, N-(1,1-dioxo-2,3-dihydro-1lambda6-thiophen-3-yl)-2-(2H-indazol-6-yl)-N-[(pyridin-4-yl)methyl]acetamide] | > 50
2 | O=C(Cc1ccc(-n2cccc2)cc1)N(C1C=CS(=O)(=O)C1)C1CCCc2cnccc21 (centres unmarked) [I-471, N-(1,1-dioxo-2,3-dihydro-1lambda6-thiophen-3-yl)-2-[4-(1H-pyrrol-1-yl)phenyl]-N-(5,6,7,8-tetrahydroisoquinolin-5-yl)acetamide] | > 50
3 | COc1ccc2cc(CC(=O)N(Cc3ccncc3)C3C=CS(=O)(=O)C3)ccc2c1 (centres unmarked) [I-511, N-(1,1-dioxo-2,3-dihydro-1lambda6-thiophen-3-yl)-2-(6-methoxynaphthalen-2-yl)-N-[(pyridin-4-yl)methyl]acetamide] | > 50
4 | COCCc1cccn1-c1ccc(CC(=O)N(Cc2ccccc2)C2C=CS(=O)(=O)C2)cc1 (centres unmarked) [I-384, N-benzyl-N-(1,1-dioxo-2,3-dihydro-1lambda6-thiophen-3-yl)-2-{4-[2-(2-methoxyethyl)-1H-pyrrol-1-yl]phenyl}acetamide] | > 50
5 | COc1cc(CN(C(=O)Cn2nc(C)c3cc(C(F)(F)F)ccc32)[C@@H]2C=CS(=O)(=O)C2)ccn1 [I-722, N-[(3R)-1,1-dioxo-2,3-dihydro-1lambda6-thiophen-3-yl]-N-[(2-methoxypyridin-4-yl)methyl]-2-[3-methyl-5-(trifluoromethyl)-1H-indazol-1-yl]acetamide] | > 50
6 | O=C(CC1CCN(c2ccccc2)CC1)N(Cc1ccncc1)C1C=CS(=O)(=O)C1 (centres unmarked) [I-552, N-(1,1-dioxo-2,3-dihydro-1lambda6-thiophen-3-yl)-2-(1-phenylpiperidin-4-yl)-N-[(pyridin-4-yl)methyl]acetamide] | > 50
7 | O=C(Cc1noc2ccccc12)N(Cc1ccncc1)C1C=CS(=O)(=O)C1 (centres unmarked) [I-516, 2-(1,2-benzoxazol-3-yl)-N-(1,1-dioxo-2,3-dihydro-1lambda6-thiophen-3-yl)-N-[(pyridin-4-yl)methyl]acetamide] | > 50
8 | O=C(Cc1cccc(C(F)(F)F)c1)N(Cc1ccncc1)C1C=CS(=O)(=O)C1 (centres unmarked) [I-536, N-(1,1-dioxo-2,3-dihydro-1lambda6-thiophen-3-yl)-N-[(pyridin-4-yl)methyl]-2-[3-(trifluoromethyl)phenyl]acetamide] | > 50
9 | O=C(c1ccc(-n2cccc2)cc1)N(Cc1ccccc1)C1C=CS(=O)(=O)C1 (centres unmarked) [I-486, N-benzyl-N-(1,1-dioxo-2,3-dihydro-1lambda6-thiophen-3-yl)-4-(1H-pyrrol-1-yl)benzamide] | > 50
10 | Cc1nn(-c2ccc(F)cc2F)c(C)c1CC(=O)N(Cc1ccncc1)C1C=CS(=O)(=O)C1 (centres unmarked) [I-816, 2-[1-(2,4-difluorophenyl)-3,5-dimethyl-1H-pyrazol-4-yl]-N-(1,1-dioxo-2,3-dihydro-1lambda6-thiophen-3-yl)-N-[(pyridin-4-yl)methyl]acetamide] | > 50
11 | COc1cc(CN(C(=O)C(OC)c2ccc(-c3ccc(F)cc3)cc2F)C2C=CS(=O)(=O)C2)ccn1 (single isomer, unassigned) [I-404, (2R*)-2-{3,4′-difluoro-[1,1′-biphenyl]-4-yl}-N-[(3R**)-1,1-dioxo-2,3-dihydro-1lambda6-thiophen-3-yl]-2-methoxy-N-[(2-methoxypyridin-4-yl)methyl]acetamide] | > 50
12 | COc1cc(CN(C(=O)Cc2ccn(-c3ccc(Cl)cc3)n2)C2C=CS(=O)(=O)C2)ccn1 (centres unmarked) [I-380, 2-[1-(4-chlorophenyl)-1H-pyrazol-3-yl]-N-(1,1-dioxo-2,3-dihydro-1lambda6-thiophen-3-yl)-N-[(2-methoxypyridin-4-yl)methyl]acetamide] | > 50

Further lines, results first:

Row | IC50 [µM] | Structure (SMILES)
13 | > 50 | COc1cc(CN(C(=O)C(OCc2cnn(C)c2)c2ccc(-c3ccc(F)c(F)c3)cc2F)[C@@H]2C=CS(=O)(=O)C2)ccn1 (single isomer, unassigned) [I-743, (2R*)-N-[(3R)-1,1-dioxo-2,3-dihydro-1lambda6-thiophen-3-yl]-N-[(2-methoxypyridin-4-yl)methyl]-2-[(1-methyl-1H-pyrazol-4-yl)methoxy]-2-{3,3′,4′-trifluoro-[1,1′-biphenyl]-4-yl}acetamide]
14 | 10 to 50 | COc1cc(CN(C(=O)Cc2ccc(-n3cccc3C)cc2F)C2C=CS(=O)(=O)C2)ccn1 (single isomer, unassigned) [I-329]
15 | 5 to 10 | O=C(C1Cc2cc(-n3cccc3)ccc21)N(Cc1ccncc1)C1C=CS(=O)(=O)C1 (centres unmarked) [I-233, N-(1,1-dioxido-2,3-dihydrothiophen-3-yl)-N-(pyridin-4-ylmethyl)-3-(1H-pyrrol-1-yl)bicyclo[4.2.0]octa-1(6),2,4-triene-7-carboxamide]
16 | 0.5 to 5 | COc1cc(CN(C(=O)C2CCc3[nH]c4cc(Cl)ccc4c3C2)[C@@H]2C=CS(=O)(=O)C2)ccn1 (stereo partly drawn) [I-786, 7-chloro-N-[(3R)-1,1-dioxo-2,3-dihydro-1lambda6-thiophen-3-yl]-N-[(2-methoxypyridin-4-yl)methyl]-2,3,4,9-tetrahydro-1H-carbazole-3-carboxamide]
17 | 0.5 to 5 | O=C(Cc1ncc(-c2ccc(F)cc2)cc1F)N(Cc1ccncc1)C1C=CS(=O)(=O)C1 (centres unmarked) [I-205, N-(1,1-dioxo-2,3-dihydro-1lambda6-thiophen-3-yl)-2-[3-fluoro-5-(4-fluorophenyl)pyridin-2-yl]-N-[(pyridin-4-yl)methyl]acetamide]
18 | > 50 | CNC(=O)CC(C(=O)N(Cc1ccnc(OC)c1)C1C=CS(=O)(=O)C1)c1ccc(-c2ccc(F)cc2)cc1 (centres unmarked) [I-574, N-(1,1-dioxo-2,3-dihydro-1lambda6-thiophen-3-yl)-2-{4′-fluoro-[1,1′-biphenyl]-4-yl}-N-[(2-methoxypyridin-4-yl)methyl]-N′-methylbutanediamide]
19 | < 0.5 | CC(C)(O)c1cc(CN(C(=O)Cn2cc(-c3cc(F)c(F)c(F)c3)cn2)C2C=CS(=O)(=O)C2)ccn1 (single isomer, unassigned) [I-1]
20 | 5 to 10 | COc1cc(CN(C(=O)CCc2c[nH]c3cc(Cl)ccc23)C2C=CS(=O)(=O)C2)ccn1 (centres unmarked) [I-240, 3-(6-chloro-1H-indol-3-yl)-N-(1,1-dioxo-2,3-dihydro-1lambda6-thiophen-3-yl)-N-[(2-methoxypyridin-4-yl)methyl]propanamide]
21 | < 0.5 | COc1cc(CN(C(=O)C(C(=O)N(C)C)c2ccc(-c3ccc(F)c(F)c3)cc2F)C2C=CS(=O)(=O)C2)ccn1 (single isomer, unassigned) [I-577, (2R**)-N-[(3R*)-1,1-dioxo-2,3-dihydro-1lambda6-thiophen-3-yl]-N-[(2-methoxypyridin-4-yl)methyl]-N′,N′-dimethyl-2-{3,3′,4′-trifluoro-[1,1′-biphenyl]-4-yl}propanediamide]
22 | < 0.5 | COc1cnn(C(C(=O)N(Cc2ccnc(OC)c2)[C@@H]2C=CS(=O)(=O)C2)c2ccc(-c3ccc(F)c(F)c3)cc2F)c1 (stereo partly drawn) [I-748, N-[(3R)-1,1-dioxo-2,3-dihydro-1lambda6-thiophen-3-yl]-2-(4-methoxy-1H-pyrazol-1-yl)-N-[(2-methoxypyridin-4-yl)methyl]-2-{3,3′,4′-trifluoro-[1,1′-biphenyl]-4-yl}acetamide]
23 | < 0.5 | CC(C)(O)c1cc(CN(C(=O)Cc2ccc(S(F)(F)(F)(F)F)cc2)[C@@H]2C=CS(=O)(=O)C2)ccn1 [I-16, (R)—N-(1,1-dioxido-2,3-dihydrothiophen-3-yl)-N-((2-(2-hydroxypropan-2-yl)pyridin-4-yl)methyl)-2-(4-(pentafluoro-λ^6-sulfaneyl)phenyl)acetamide]
24 | < 0.5 | COc1cc(CN(C(=O)Cn2cc(-c3ccc(F)c(F)c3)cn2)[C@@H]2C=CS(=O)(=O)C2)ccn1 [I-598, 2-[4-(3,4-difluorophenyl)-1H-pyrazol-1-yl]-N-[(3R)-1,1-dioxo-2,3-dihydro-1lambda6-thiophen-3-yl]-N-[(2-methoxypyridin-4-yl)methyl]acetamide]
25 | 10 to 50 | N#Cc1cccc(CN(C(=O)Cc2ccc(-n3cccc3)cc2)C2C=CS(=O)(=O)C2)c1 (centres unmarked) [I-286, N-[(3-cyanophenyl)methyl]-N-(1,1-dioxo-2,3-dihydro-1lambda6-thiophen-3-yl)-2-[4-(1H-pyrrol-1-yl)phenyl]acetamide]
26 | 0.5 to 5 | C#CCN(C)C(=O)c1ccc(CN(C(=O)Cc2ccc(-n3cccc3)cc2F)C2C=CS(=O)(=O)C2)cc1 (centres unmarked) [I-153, 4-{[N-(1,1-dioxo-2,3-dihydro-1lambda6-thiophen-3-yl)-2-[2-fluoro-4-(1H-pyrrol-1-yl)phenyl]acetamido]methyl}-N-methyl-N-(prop-2-yn-1-yl)benzamide]
27 | 0.5 to 5 | O=C(c1ccc(CN(C(=O)Cc2ccc(-c3ccc(F)c(F)c3)cc2F)C2C=CS(=O)(=O)C2)cc1)N1CCOCC1 (centres unmarked) [I-780, N-(1,1-dioxo-2,3-dihydro-1lambda6-thiophen-3-yl)-N-{[4-(morpholine-4-carbonyl)phenyl]methyl}-2-{3,3′,4′-trifluoro-[1,1′-biphenyl]-4-yl}acetamide]
28 | < 0.5 | O=C(Cn1cc(-c2ccc(F)c(F)c2)cn1)N(Cc1nc(C2CC2)cs1)C1C=CS(=O)(=O)C1 (centres unmarked) [I-599, N-[(4-cyclopropyl-1,3-thiazol-2-yl)methyl]-2-[4-(3,4-difluorophenyl)-1H-pyrazol-1-yl]-N-(1,1-dioxo-2,3-dihydro-1lambda6-thiophen-3-yl)acetamide]
29 | 5 to 10 | O=C(Cc1ccc(S(F)(F)(F)(F)F)cc1)N(Cc1ccnnc1)C1C=CS(=O)(=O)C1 (centres unmarked) [I-646, N-(1,1-dioxo-2,3-dihydro-1lambda6-thiophen-3-yl)-2-[4-(pentafluoro-lambda6-sulfanyl)phenyl]-N-[(pyridazin-4-yl)methyl]acetamide]
